# Legend:
# barnyard grass [1] = assay: Test Example 3: herbicidal effect by foliage application, Wagner pot (Table 18, symbol H); format: in vivo, barnyard grass (Echinochloa crus-galli); conditions: amount of applied herbicide 320 g/ha
# Outline: (§1)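 Plants were sown in alluvial soil held under 0.1–0.5 cm standing water and grown 14 days in a greenhouse at 25–30 °C. An emulsifiable formulation, water-diluted to the set dose, was then sprayed onto the foliage, and effects were scored three weeks later using previously defined criteria.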
# Chinese sprangletop = assay: Test Example 3: herbicidal effect by foliage application, Wagner pot (Table 18, symbol D); format: in vivo, chinese sprangletop (Leptochloa chinensis); conditions: amount of applied herbicide 320 g/ha
# Outline: as §1
# rice flat sedge = assay: Test Example 3: herbicidal effect by foliage application, Wagner pot (Table 18, symbol E); format: in vivo, rice flat sedge (Cyperus iria); conditions: amount of applied herbicide 320 g/ha
# Outline: as §1
# southern crabgrass [2] = assay: Test Example 4: herbicidal effect by soil treatment (Table 19, symbol F); format: in vivo, southern crabgrass (Digitaria ciliaris); conditions: amount of applied herbicide 320 g/ha
# Outline: (§2)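 In this soil treatment, the formulated compound reached the seeds only through the soil: seeds were buried about 1.5 cm deep in sterilized diluvial soil, then the diluted emulsion was sprayed over the surface. After three weeks at 25° C. to 30° C. in a greenhouse, effects were graded on criteria from an earlier test.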
# green foxtail [3] = assay: Test Example 4: herbicidal effect by soil treatment (Table 19, symbol G); format: in vivo, green foxtail (Setaria viridis); conditions: amount of applied herbicide 320 g/ha
# Outline: as §2
# barnyard grass [4] = assay: Test Example 4: herbicidal effect by soil treatment (Table 19, symbol H); format: in vivo, barnyard grass (Echinochloa crus-galli); conditions: amount of applied herbicide 320 g/ha
# Outline: as §2
# wild oat [5] = assay: Test Example 4: herbicidal effect by soil treatment (Table 19, symbol I); format: in vivo, wild oat (Avena fatua); conditions: amount of applied herbicide 320 g/ha
# Outline: as §2
# blackgrass [6] = assay: Test Example 4: herbicidal effect by soil treatment (Table 19, symbol J); format: in vivo, blackgrass (Alopecurus myosuroides); conditions: amount of applied herbicide 320 g/ha
# Outline: as §2
# Italian ryegrass [7] = assay: Test Example 4: herbicidal effect by soil treatment (Table 19, symbol K); format: in vivo, Italian ryegrass (Lolium multiflorum); conditions: amount of applied herbicide 320 g/ha
# Outline: as §2
# windgrass [8] = assay: Test Example 4: herbicidal effect by soil treatment (Table 19, symbol L); format: in vivo, windgrass (Apera spica-venti); conditions: amount of applied herbicide 320 g/ha
# Outline: as §2
# velvetleaf [9] = assay: Test Example 4: herbicidal effect by soil treatment (Table 19, symbol M); format: in vivo, velvetleaf (Abutilon theophrasti); conditions: amount of applied herbicide 320 g/ha
# Outline: as §2
# redroot pigweed [10] = assay: Test Example 4: herbicidal effect by soil treatment (Table 19, symbol N); format: in vivo, redroot pigweed (Amaranthus retroflexus); conditions: amount of applied herbicide 320 g/ha
# Outline: as §2
# lambsquarters [11] = assay: Test Example 4: herbicidal effect by soil treatment (Table 19, symbol O); format: in vivo, lambsquarters (Chenopodium album); conditions: amount of applied herbicide 320 g/ha
# Outline: as §2
# chickweed [12] = assay: Test Example 4: herbicidal effect by soil treatment (Table 19, symbol P); format: in vivo, common chickweed (Stellaria media); conditions: amount of applied herbicide 320 g/ha
# Outline: as §2
# false cleavers [13] = assay: Test Example 4: herbicidal effect by soil treatment (Table 19, symbol Q); format: in vivo, false cleavers (Galium spurium); conditions: amount of applied herbicide 320 g/ha
# Outline: as §2
# persian speedwell [14] = assay: Test Example 4: herbicidal effect by soil treatment (Table 19, symbol R); format: in vivo, Persian speedwell (Veronica persica); conditions: amount of applied herbicide 320 g/ha
# Outline: as §2
# southern crabgrass [15] = assay: Test Example 5: herbicidal effect by foliage application, plastic box (Table 20, symbol F); format: in vivo, southern crabgrass (Digitaria ciliaris); conditions: foliage application, 320 g/ha
# Outline: (§3)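 Plants were sown into sterilized diluvial soil under about 1.5 cm cover and kept in a greenhouse at 25° C. to 30° C. Fourteen days on, foliage received an even spray of the diluted emulsion. Herbicidal or crop effect was judged three weeks afterwards.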
# green foxtail [16] = assay: Test Example 5: herbicidal effect by foliage application, plastic box (Table 20, symbol G); format: in vivo, green foxtail (Setaria viridis); conditions: foliage application, 320 g/ha
# Outline: as §3
# barnyard grass [17] = assay: Test Example 5: herbicidal effect by foliage application, plastic box (Table 20, symbol H); format: in vivo, barnyard grass (Echinochloa crus-galli); conditions: foliage application, 320 g/ha
# Outline: as §3
# wild oat [18] = assay: Test Example 5: herbicidal effect by foliage application, plastic box (Table 20, symbol I); format: in vivo, wild oat (Avena fatua); conditions: foliage application, 320 g/ha
# Outline: as §3
# blackgrass [19] = assay: Test Example 5: herbicidal effect by foliage application, plastic box (Table 20, symbol J); format: in vivo, blackgrass (Alopecurus myosuroides); conditions: foliage application, 320 g/ha
# Outline: as §3
# Italian ryegrass [20] = assay: Test Example 5: herbicidal effect by foliage application, plastic box (Table 20, symbol K); format: in vivo, Italian ryegrass (Lolium multiflorum); conditions: foliage application, 320 g/ha
# Outline: as §3
# windgrass [21] = assay: Test Example 5: herbicidal effect by foliage application, plastic box (Table 20, symbol L); format: in vivo, windgrass (Apera spica-venti); conditions: foliage application, 320 g/ha
# Outline: as §3
# velvetleaf [22] = assay: Test Example 5: herbicidal effect by foliage application, plastic box (Table 20, symbol M); format: in vivo, velvetleaf (Abutilon theophrasti); conditions: foliage application, 320 g/ha
# Outline: as §3
# redroot pigweed [23] = assay: Test Example 5: herbicidal effect by foliage application, plastic box (Table 20, symbol N); format: in vivo, redroot pigweed (Amaranthus retroflexus); conditions: foliage application, 320 g/ha
# Outline: as §3
# lambsquarters [24] = assay: Test Example 5: herbicidal effect by foliage application, plastic box (Table 20, symbol O); format: in vivo, lambsquarters (Chenopodium album); conditions: foliage application, 320 g/ha
# Outline: as §3
# chickweed [25] = assay: Test Example 5: herbicidal effect by foliage application, plastic box (Table 20, symbol P); format: in vivo, common chickweed (Stellaria media); conditions: foliage application, 320 g/ha
# Outline: as §3
# false cleavers [26] = assay: Test Example 5: herbicidal effect by foliage application, plastic box (Table 20, symbol Q); format: in vivo, false cleavers (Galium spurium); conditions: foliage application, 320 g/ha
# Outline: as §3
# persian speedwell [27] = assay: Test Example 5: herbicidal effect by foliage application, plastic box (Table 20, symbol R); format: in vivo, Persian speedwell (Veronica persica); conditions: foliage application, 320 g/ha
# Outline: as §3
# [28] = evaluated three weeks after application
compound,measurement,setting,value
COc1ccc(F)cc1-c1sc2ccc(C)cc2c1-c1c(O)c(C)nn(C)c1=O [2-150],herbicidal effect on H: barnyard grass,barnyard grass [1],4 (Herbicidal rate of 70% or more and less than 90%)
same,herbicidal effect on D: Chinese sprangletop,Chinese sprangletop,2 (Herbicidal rate of 20% or more and less than 40%)
same,herbicidal effect on E: rice flat sedge,rice flat sedge,5 (Herbicidal rate of 90% or more (almost completely withered))
same,"F: southern crabgrass, herbicidal effect rating",southern crabgrass [2],0 (Herbicidal rate of 5% or less (almost no effect))
same,"G: green foxtail, herbicidal effect rating",green foxtail [3],0 (Herbicidal rate of 5% or less (almost no effect))
same,"H: barnyard grass, herbicidal effect rating",barnyard grass [4],0 (Herbicidal rate of 5% or less (almost no effect))
same,"I: wild oat, herbicidal effect rating",wild oat [5],0 (Herbicidal rate of 5% or less (almost no effect))
same,"J: blackgrass, herbicidal effect rating",blackgrass [6],0 (Herbicidal rate of 5% or less (almost no effect))
same,"K: Italian ryegrass, herbicidal effect rating",Italian ryegrass [7],0 (Herbicidal rate of 5% or less (almost no effect))
same,"L: windgrass, herbicidal effect rating",windgrass [8],0 (Herbicidal rate of 5% or less (almost no effect))
same,"M: velvetleaf, herbicidal effect rating",velvetleaf [9],1 (Herbicidal rate of 5% or more and less than 20%)
same,"N: redroot pigweed, herbicidal effect rating",redroot pigweed [10],3 (Herbicidal rate of 40% or more and less than 70%)
same,"O: lambsquarters, herbicidal effect rating",lambsquarters [11],2 (Herbicidal rate of 20% or more and less than 40%)
same,"P: chickweed, herbicidal effect rating",chickweed [12],4 (Herbicidal rate of 70% or more and less than 90%)
same,"Q: false cleavers, herbicidal effect rating",false cleavers [13],0 (Herbicidal rate of 5% or less (almost no effect))
same,"R: persian speedwell, herbicidal effect rating",persian speedwell [14],5 (Herbicidal rate of 90% or more (almost completely withered))
same,herbicidal effect on F: southern crabgrass (criteria 0-5),southern crabgrass [15]; [28],0 (Herbicidal rate of 5% or less (almost no effect))
same,herbicidal effect on G: green foxtail (criteria 0-5),green foxtail [16]; [28],0 (Herbicidal rate of 5% or less (almost no effect))
same,herbicidal effect on H: barnyard grass (criteria 0-5),barnyard grass [17]; [28],0 (Herbicidal rate of 5% or less (almost no effect))
same,herbicidal effect on I: wild oat (criteria 0-5),wild oat [18]; [28],1 (Herbicidal rate of 5% or more and less than 20%)
same,herbicidal effect on J: blackgrass (criteria 0-5),blackgrass [19]; [28],4 (Herbicidal rate of 70% or more and less than 90%)
same,herbicidal effect on K: Italian ryegrass (criteria 0-5),Italian ryegrass [20]; [28],3 (Herbicidal rate of 40% or more and less than 70%)
same,herbicidal effect on L: windgrass (criteria 0-5),windgrass [21]; [28],3 (Herbicidal rate of 40% or more and less than 70%)
same,herbicidal effect on M: velvetleaf (criteria 0-5),velvetleaf [22]; [28],4 (Herbicidal rate of 70% or more and less than 90%)
same,herbicidal effect on N: redroot pigweed (criteria 0-5),redroot pigweed [23]; [28],5 (Herbicidal rate of 90% or more (almost completely withered))
same,herbicidal effect on O: lambsquarters (criteria 0-5),lambsquarters [24]; [28],3 (Herbicidal rate of 40% or more and less than 70%)
same,herbicidal effect on P: chickweed (criteria 0-5),chickweed [25]; [28],5 (Herbicidal rate of 90% or more (almost completely withered))
same,herbicidal effect on Q: false cleavers (criteria 0-5),false cleavers [26]; [28],4 (Herbicidal rate of 70% or more and less than 90%)
same,herbicidal effect on R: persian speedwell (criteria 0-5),persian speedwell [27]; [28],5 (Herbicidal rate of 90% or more (almost completely withered))
Cc1nn(C)c(=O)c(-c2c(-c3ccc(F)cc3)sc3cc(F)ccc23)c1O [3-001],herbicidal effect on H: barnyard grass,barnyard grass [1],5 (Herbicidal rate of 90% or more (almost completely withered))
same,herbicidal effect on D: Chinese sprangletop,Chinese sprangletop,5 (Herbicidal rate of 90% or more (almost completely withered))
same,herbicidal effect on E: rice flat sedge,rice flat sedge,5 (Herbicidal rate of 90% or more (almost completely withered))
same,"herbicidal effect, F: southern crabgrass",southern crabgrass [2],5 (Herbicidal rate of 90% or more (almost completely withered))
same,"herbicidal effect, G: green foxtail",green foxtail [3],4 (Herbicidal rate of 70% or more and less than 90%)
same,"herbicidal effect, H: barnyard grass",barnyard grass [4],4 (Herbicidal rate of 70% or more and less than 90%)
same,"herbicidal effect, I: wild oat",wild oat [5],4 (Herbicidal rate of 70% or more and less than 90%)
same,"herbicidal effect, J: blackgrass",blackgrass [6],3 (Herbicidal rate of 40% or more and less than 70%)
same,"herbicidal effect, K: Italian ryegrass",Italian ryegrass [7],5 (Herbicidal rate of 90% or more (almost completely withered))
same,"herbicidal effect, L: windgrass",windgrass [8],4 (Herbicidal rate of 70% or more and less than 90%)
same,"herbicidal effect, M: velvetleaf",velvetleaf [9],0 (Herbicidal rate of 5% or less (almost no effect))
same,"herbicidal effect, N: redroot pigweed",redroot pigweed [10],5 (Herbicidal rate of 90% or more (almost completely withered))
same,"herbicidal effect, O: lambsquarters",lambsquarters [11],5 (Herbicidal rate of 90% or more (almost completely withered))
same,"herbicidal effect, P: chickweed",chickweed [12],5 (Herbicidal rate of 90% or more (almost completely withered))
same,"herbicidal effect, Q: false cleavers",false cleavers [13],3 (Herbicidal rate of 40% or more and less than 70%)
same,"herbicidal effect, R: persian speedwell",persian speedwell [14],4 (Herbicidal rate of 70% or more and less than 90%)
same,"F: southern crabgrass, herbicidal effect grade",southern crabgrass [15]; three weeks after application,5 (Herbicidal rate of 90% or more (almost completely withered))
same,"G: green foxtail, herbicidal effect grade",green foxtail [16]; three weeks after application,5 (Herbicidal rate of 90% or more (almost completely withered))
same,"H: barnyard grass, herbicidal effect grade",barnyard grass [17]; three weeks after application,5 (Herbicidal rate of 90% or more (almost completely withered))
same,"I: wild oat, herbicidal effect grade",wild oat [18]; three weeks after application,5 (Herbicidal rate of 90% or more (almost completely withered))
same,"J: blackgrass, herbicidal effect grade",blackgrass [19]; three weeks after application,5 (Herbicidal rate of 90% or more (almost completely withered))
same,"K: Italian ryegrass, herbicidal effect grade",Italian ryegrass [20]; three weeks after application,5 (Herbicidal rate of 90% or more (almost completely withered))
same,"L: windgrass, herbicidal effect grade",windgrass [21]; three weeks after application,5 (Herbicidal rate of 90% or more (almost completely withered))
same,"M: velvetleaf, herbicidal effect grade",velvetleaf [22]; three weeks after application,5 (Herbicidal rate of 90% or more (almost completely withered))
same,"N: redroot pigweed, herbicidal effect grade",redroot pigweed [23]; three weeks after application,5 (Herbicidal rate of 90% or more (almost completely withered))
same,"O: lambsquarters, herbicidal effect grade",lambsquarters [24]; three weeks after application,5 (Herbicidal rate of 90% or more (almost completely withered))
same,"P: chickweed, herbicidal effect grade",chickweed [25]; three weeks after application,5 (Herbicidal rate of 90% or more (almost completely withered))
same,"Q: false cleavers, herbicidal effect grade",false cleavers [26]; three weeks after application,5 (Herbicidal rate of 90% or more (almost completely withered))
same,"R: persian speedwell, herbicidal effect grade",persian speedwell [27]; three weeks after application,5 (Herbicidal rate of 90% or more (almost completely withered))
